From article PMC6270837, “Preparation and Biological Properties of Ring-Substituted Naphthalene-1-Carboxanilides” (Molecules, 2014)
Values joined by “and” are separate entries in the source; they are usually repeats but may differ in a detail not shown here. Identical values can stand only once. Like-named read-outs stand apart in the source and are kept apart here.

Key:
[1] = Lipophilicity determination by RP-HPLC (capacity factor, log k); assay type: physicochemical; settings: end-capped C18, isocratic MeOH 60%/H2O 40%
Procedure: Lipophilicity is a property that has a major effect on bioavailability, biotransformation as well as pharmacological activity, because drugs cross biological membranes through passive transport, which strongly depends on their lipophilicity. Lipophilicity of the studied compounds was determined by RP‑HPLC as capacity factor logarithm (log k). The procedure was performed under isocratic conditions with methanol as an organic modifier in the mobile phase using an end-capped non-polar C18 stationary RP column. The results of ring-substituted naphthalene-1-carboxanilides 1–8c are shown in Table 1 and illustrated in Figure 1. […] Lipophilicity was also calculated as log P using ACD/Percepta ver. 2012 (Advanced Chemistry Development, Inc., Toronto, ON, Canada).
A HPLC system Agilent 1200 equipped with DAD detector (Agilent, USA) was used. A chromatographic column Symmetry® C18 5 μm, 4.6 × 250 mm, Part No. WAT054275 (Waters Corp., Milford, MA, USA) was used. The HPLC separation process was monitored and evaluated by EZChrom Elite software ver. 3.3.2 (Agilent, USA). Isocratic elution by a mixture of MeOH p.a. (60%) and H2O-HPLC Mili-Q grade (40%) as a mobile phase was used. The total flow of the column was 1.0 mL/min, injection 20 μL, column temperature 40 °C, and sample temperature 10 °C. The detection wavelength 210 nm was chosen. The KI methanolic solution was used for the dead time (tD) determination. Retention times (tR) were measured in minutes. The capacity factors k were calculated according to formula k = (tR − tD)/tD, where tR is the retention time of the solute, whereas tD denotes the dead time obtained using an unretained analyte. Log k, calculated from the capacity factor k, is used as the lipophilicity index converted to log P scale.

[2] = system: photosynthetic electron transport (PET) in isolated spinach chloroplasts; experiment: Inhibition of photosynthetic electron transport (PET) in isolated spinach chloroplasts; assay type: biochemical, Spinacia oleracea L.; settings: DCPIP photoreduction
Procedure: The PET-inhibiting activity was expressed by IC50 value, i.e., compound concentration in mol/L causing 50% inhibition of PET.
(§1) Chloroplasts were prepared from spinach (Spinacia oleracea L.) according to Masarovicova and Kralova. The inhibition of photosynthetic electron transport (PET) in isolated spinach chloroplasts was determined spectrophotometrically (Genesys 6, Thermo Scientific, USA), using an artificial electron acceptor 2,6-dichlorophenol-indophenol (DCIPP) according to Kralova et al., and the rate of photosynthetic electron transport was monitored as a photoreduction of DCPIP. The measurements were carried out in phosphate buffer (0.02 mol/L, pH 7.2) containing sucrose (0.4 mol/L), MgCl2 (0.005 mol/L) and NaCl (0.015 mol/L). The chlorophyll content was 30 mg/L in these experiments and the samples were irradiated (~100 W/m^2 with 10 cm distance) with a halogen lamp (250 W) using a 4 cm water filter to prevent warming of the samples (suspension temperature 22 °C). The studied compounds were dissolved in DMSO due to their limited water solubility. […] The inhibitory efficiency of the studied compounds was expressed by IC50 values, i.e., by molar concentration of the compounds causing 50% decrease in the oxygen evolution rate relative to the untreated control.

[3] = system: Mycobacterium avium subsp. paratuberculosis CIT03; experiment: In vitro antimycobacterial evaluation (MIC/IC90, alamarBlue); assay type: cell-based; settings: for MIC: Mycobacterium avium
Procedure: The MIC/IC90 value is routinely and widely used in bacterial assays and is a standard detection limit according to the Clinical and Laboratory Standards Institute.
A well-characterized clinical isolate of Mycobacterium avium subsp. paratuberculosis (CIT03) was grown in Middlebrook broth (MB), supplemented with Oleic-Albumin-Dextrose-Catalase supplement (OADC, Becton, Dickinson and Comp., Franklin Lakes, NJ, USA) and mycobactin J (2 µg/mL). Identification of this isolate was performed using biochemical and molecular protocols. At log phase growth, a culture sample (10 mL) was centrifuged at 15,000 rpm/20 min using a bench top centrifuge (Model CR 4-12, Jouan Inc., Winchester, VA, USA). Following removal of the supernatant, the pellet was washed in fresh Middlebrook 7H9GC broth and re-suspended in fresh supplemented MB (10 mL). The turbidity was adjusted to match McFarland standard No. 1 (3 × 10^8 cfu) with MB broth. A further 1:20 dilution of the culture was then performed in MB broth. The antimicrobial susceptibility of the mycobacterial species was investigated in a 96-well plate format. In these experiments, sterile deionized water (300 µL) was added to all outer-perimeter wells of the plates to minimize evaporation of the medium in the test wells during incubation. Each evaluated compound (100 µL) was incubated with the mycobacterial species (100 µL). Dilutions of each compound were prepared in duplicate. For all synthesized compounds, final concentrations ranged from 1,000 µg/mL to 8 µg/mL. All compounds were prepared in DMSO and subsequent dilutions were made in supplemented MB. The plates were sealed with parafilm and incubated at 37 °C for 11 days.
Following incubation, a 10% addition of alamarBlue (AbD Serotec, Kidlington, UK) was mixed into each well and readings at 570 nm and 600 nm were taken, initially for background subtraction and subsequently after 24 h re-incubation. […] For non-interfering compounds, a blue colour in the well was interpreted as an absence of growth and a pink colour was scored as growth. Furthermore percent reduction of alamarBlue was calculated to generate quantitative data on cell viability during exposure to antimycobacterial compounds over a period of 5 days. The formula used to determine percent reduction of alamarBlue has been standardized for colorimetric analysis by Abd Serotec.
The MIC value is routinely and widely used in bacterial assays and is a standard detection limit according to the Clinical and Laboratory Standards Institute.

[4] = Solubility in PET tested medium; assay type: physicochemical; settings: PET assay medium, phosphate buffer pH 7.2, DMSO up to 4%
Procedure: as §1

[5] = 264 h, clinical isolate CIT03, 11 days at 37 °C, alamarBlue, MIC = 90% or greater reduction of growth, read-out: MAP MIC/IC90

Row | SMILES | log k [1] | IC50 [2] | solubility in tested medium (PET experiments) [4] | further results
1 | Cc1ccccc1NC(=O)c1cccc2ccccc12 [Compound 3a, N-(2-Methylphenyl)naphthalene-1-carboxamide] | 0.5309 | – | – | –
2 | O=C(Nc1ccccc1)c1cccc2ccccc12 [Compound 1, N-Phenylnaphthalene-1-carboxamide] | 0.5620 | – | – | –
3 | O=C(Nc1ccc(C(F)(F)F)cc1)c1cccc2ccccc12 [Compound 7c, N-[4-(Trifluoromethyl)phenyl]naphthalene-1-carboxamide] | 1.1480 | 59 µM | – | MIC [3, 5]: 793 µM
4 | CO[C@H]1/C=C/O[C@@]2(C)Oc3c(C)c(O)c4c(O)c(c(/C=N/N5CCN(C)CC5)c(O)c4c3C2=O)NC(=O)/C(C)=C\C=C\[C@H](C)[C@H](O)[C@@H](C)[C@@H](O)[C@@H](C)[C@H](OC(C)=O)[C@@H]1C [RIF, rifampicin, reference compound] | – | – | – | MIC ([3]; 264 h, read-out: MAP MIC/IC90): 109 µM; MIC ([3]; clinical isolate CIT03, read-out: MIC): 90 µg/mL; MAP MIC/IC90 ([3]; clinical isolate CIT03, 11 days at 37 °C, alamarBlue, MIC = 90% or greater reduction of growth): 109 µM
5 | O=C(Nc1ccc(Br)cc1)c1cccc2ccccc12 [Compound 6c, N-(4-Bromophenyl)naphthalene-1-carboxamide] | 0.9985 | 365 µM | limited solubility | MIC [3, 5]: 184 µM
6 | NNC(=O)c1ccncc1 [INH, isoniazid, reference compound] | – | – | – | MIC [3, 5]: 1820 µM
7 | O=C(Nc1cccc(Br)c1)c1cccc2ccccc12 [Compound 6b, N-(3-Bromophenyl)naphthalene-1-carboxamide] | 1.0047 | 278 µM | limited solubility | –
8 | O=C(Nc1ccccc1F)c1cccc2ccccc12 [Compound 4a, N-(2-Fluorophenyl)naphthalene-1-carboxamide] | 0.5592 | – | precipitation | –
9 | O=C(Nc1ccc(Cl)cc1)c1cccc2ccccc12 [Compound 5c, N-(4-Chlorophenyl)naphthalene-1-carboxamide] | 0.9223 | 102 µM | – | –
10 | O=C(Nc1ccccc1[N+](=O)[O-])c1cccc2ccccc12 [Compound 8a, N-(2-Nitrophenyl)naphthalene-1-carboxamide] | 0.9090 | 476 µM | limited solubility | –
11 | O=C(Nc1ccc(F)cc1)c1cccc2ccccc12 [Compound 4c, N-(4-Fluorophenyl)naphthalene-1-carboxamide] | 0.6315 | – | precipitation | –
12 | O=C(Nc1ccccc1Br)c1cccc2ccccc12 [Compound 6a, N-(2-Bromophenyl)naphthalene-1-carboxamide] | 0.8892 | – | precipitation | –
13 | O=C(Nc1cccc(Cl)c1)c1cccc2ccccc12 [Compound 5b, N-(3-Chlorophenyl)naphthalene-1-carboxamide] | 0.9357 | 107 µM | – | –
14 | O=C(Nc1cccc(C(F)(F)F)c1)c1cccc2ccccc12 [Compound 7b, N-[3-(Trifluoromethyl)phenyl]naphthalene-1-carboxamide] | 1.0862 | 114 µM | – | –
15 | O=C(Nc1ccccc1C(F)(F)F)c1cccc2ccccc12 [Compound 7a, N-[2-(Trifluoromethyl)phenyl]naphthalene-1-carboxamide] | 0.7595 | – | precipitation | –
16 | O=C(Nc1ccccc1Cl)c1cccc2ccccc12 [Compound 5a, N-(2-Chlorophenyl)naphthalene-1-carboxamide] | 0.8322 | – | precipitation | –
17 | CN(C)C(=O)Nc1ccc(Cl)c(Cl)c1 [DCMU, 3-(3,4-dichlorophenyl)-1,1-dimethylurea, reference compound] | – | ~1.9 µM and 1.9 µM | – | –
18 | COc1ccc(NC(=O)c2cccc3ccccc23)cc1 [Compound 2c, N-(4-Methoxyphenyl)naphthalene-1-carboxamide] | 0.4953 | – | – | –
19 | O=C(Nc1ccc([N+](=O)[O-])cc1)c1cccc2ccccc12 [Compound 8c, N-(4-Nitrophenyl)naphthalene-1-carboxamide] | 0.7328 | 129 µM | – | –
20 | O=C(Nc1cccc([N+](=O)[O-])c1)c1cccc2ccccc12 [Compound 8b, N-(3-Nitrophenyl)naphthalene-1-carboxamide] | 0.8155 | 492 µM | limited solubility | –
